Measurements published in PubChem BioAssay AID1919002 (Molecular Pharmacology Branch, DTP, NCI, 2023).
pIC50: −log10 of the molar value. Values joined by “and” are separate entries in the source; they are usually repeats but may differ in a detail not shown here. Equal entries are not always repeated.

Tested on: 743489-274-T-PDC complex spheroid growth
Test: Anticancer human tumor 743489-274-T-PDC patient-derived renal cell carcinoma cell line growth inhibition [AhR]
Conditions: for viability, T/C: stronger effect = lower value
Text: Multicellular complex tumor spheroid response to aryl hydrocarbon receptor antagonists in combination with a variety of drugs and investigational agents in selected tumor cell lines
The current study was undertaken to assess response to aryl hydrocarbon receptor antagonists in combination with standard-of-care drugs and investigational agents in solid tumor complex spheroid models. Complex spheroids include a stromal component modeled by human endothelial cells (HUVEC) and fibroblasts modeled by human mesenchymal stem cells (MSCs). The concentration ranges selected for each drug and investigational agent were based upon clinically achievable concentrations if the clinical Cmax of the agent was known.
Compounds. The drugs and investigational agents: BAY 2416964 (NSC825713), GNF351 (NSC835774), CH-223191 (NSC835775), CPI-455 (NSC825282), aza-TdCyd (NSC777586), decitabine (NSC127716), belinostat (NSC758774), entinostat (NSC756642), pevonedistat (NSC761192), tazemetostat (NSC777109), talazoparib (NSC765396), olaparib (NSC753686), selinexor (NSC780203), nedisertib (M3814, NSC802822), bortezomib (NSC756655), venetoclax (NSC766270), doxorubicin (NSC123127), elimusertib (BAY189344, NSC800525), ceralasertib (AZD6738, NSC777638), TAK-243 (NSC785004), alisertib (NSC759677), etoposide (NSC141540), topotecan (NSC609699), eribulin (NSC707389), gemcitabine (NSC613327), carboplatin (NSC241240), cisplatin (NSC119875), and SN-38 (NSC673596) were obtained from the National Cancer Institute (NCI) Developmental Therapeutics Program Chemical Repository (32). The FDA-approved anticancer drug set is available from the Developmental Therapeutics Program at https://dtp.cancer.gov/organization/dscb/obtaining/available plates.htm. […] The stock solutions were prepared in dimethyl sulfoxide (DMSO, Sigma-Aldrich, St. Louis, MO, cat. D2650), except for the platinum compounds which were prepared in saline (Quality Biological, Gaithersburg, MD, cat. 114-055-101), at 800-fold the tested concentration and stored at -70 degrees C prior to their use. All drugs and investigational agents were tested over a range starting from a high concentration at or near the clinical Cmax and decreasing in half-log increments. If the clinical Cmax for an agent had not been determined, the highest concentration tested was 10 microM (Table 1).
Cell Culture. All cells were maintained in an incubator at 37 degrees C and 5% CO2 with 95% humidity. The PDC lines were cultured according to standard operating procedures established by the NCI PDMR (https://pdmr.cancer.gov). Briefly, all PDCs were thawed and cultured in Matrigel-coated flasks prepared with a working solution of 1X Ham's F-12 nutrient mix, without supplementation (Invitrogen, Waltham, MA, cat. 11765054), 100 U/mL penicillin-streptomycin (Invitrogen, cat. 15140122), and 2.5% Matrigel (Corning Inc., Corning, NY, cat. 354248) for the first three passages. All PDCs were cultured in complete DMEM/F-12 media containing advanced DMEM/F-12 (Invitrogen, cat. 12634028), 4.9% defined fetal bovine serum, heat inactivated (HyClone Laboratories Inc., Logan, UT, cat. SH30070.03HI), 389 ng/mL hydrocortisone (Sigma-Aldrich, cat. H4001), 9.7 ng/mL human EGF recombinant protein (Invitrogen, cat. PHG0313), 23.4 microg/mL adenine (Sigma-Aldrich, cat. A2786), 97.3 U/mL penicillin-streptomycin (Invitrogen, cat. 15140122), 1.9 mM L-glutamine (Invitrogen, cat. 25030081), and 9.7 microM Y-27632 dihydrochloride (Tocris Bioscience, Bristol, United Kingdom, cat. 1254). The PDCs were cultured in complete DMEM/F12 media without 10 microM Y-27632 dihydrochloride for at least two passages prior to the screen. The established cell lines NCI-H1341 and […] were cultured in DMEM/F-12, HEPES (Invitrogen, cat. 11330032), 5% defined fetal bovine serum (HyClone Laboratories Inc., cat. SH30070.03), ITS premix universal culture supplement [insulin (5 microg/mL), transferrin (5 microg/mL), and selenious acid (5 ng/mL)] […]
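Also: spheroids exposed to agents for 7 days before readout.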
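For viability, T/C in this document: 100% = DMSO vehicle control wells.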

For `NS(=O)(=O)OCC1CC(n2ccc3c(NC4CCc5ccccc54)ncnc32)CC1O` (centres undefined), which viability, T/C (compound 0.0316 µM) is on record?
The viability, T/C was 102% and 104% and 93.9%.

And the viability, T/C (compound 0.1 µM)?
Its viability, T/C is 105% and 121% and 96.2%.

And the viability, T/C (compound 0.316 µM)?
Its viability, T/C is 114% and 108% and 103%.

What about the viability, T/C (compound 1 µM) of the same molecule?
Its viability, T/C is 132% and 136% and 138%.

And the viability, T/C (compound 3.16 µM)?
Its viability, T/C is 137% and 132% and 156%.

What about the viability, T/C (compound 10 µM) of the same molecule?
The viability, T/C was 150% and 128% and 161%.

And the pIC50 (curve of compound)?
The pIC50 was under 5.00.

`CCN(c1cc(-c2ccc(CN3CCOCC3)cc2)cc(C(=O)NCc2c(C)cc(C)[nH]c2=O)c1C)C1CCOCC1` was tested. Which viability, T/C (compound 0.00949 µM) did it give?
The viability, T/C was 107% and 101% and 108%.

What about the viability, T/C (compound 0.03 µM) of the same molecule?
The viability, T/C was 102% and 103% and 122%.

What about the viability, T/C (compound 0.0949 µM) of the same molecule?
Its viability, T/C is 102% and 86.6% and 107%.

And the viability, T/C (compound 0.3 µM)?
Its viability, T/C is 102% and 99.9% and 101%.

And the viability, T/C (compound 0.949 µM)?
The viability, T/C was 94.9% and 104% and 108%.

What about the viability, T/C (compound 3 µM) of the same molecule?
Its viability, T/C is 102% and 91% and 101%.

What about the pIC50 (curve of compound) of the same molecule?
The pIC50 was under 5.52.

What does the source list for `CCc1c2c(nc3ccc(O)cc13)-c1cc3c(c(=O)n1C2)COC(=O)[C@]3(O)CC` + Cc1cncc(-c2nc(NCCc3c[nH]c4ccccc34)c3ncn(C(C)C)c3n2)c1?
pIC50 (curve of first compound, second compound 0.1 µM): < 6.52; pIC50 (curve of first compound, second compound 0.316 µM): < 6.52; pIC50 (curve of first compound, second compound 1 µM): < 6.52; pIC50 (curve of first compound, second compound 3.16 µM): < 6.52; pIC50 (curve of first compound, second compound 10 µM): < 6.52; viability, T/C (second compound 0.1 µM, first compound 0.000949 µM): 106%; viability, T/C (second compound 0.1 µM, first compound 0.003 µM): 103%; viability, T/C (second compound 0.1 µM, first compound 0.00949 µM): 97.1%; viability, T/C (second compound 0.1 µM, first compound 0.03 µM): 89.1%; viability, T/C (second compound 0.1 µM, first compound 0.0949 µM): 79.4%; viability, T/C (second compound 0.1 µM, first compound 0.3 µM): 76.6%; viability, T/C (second compound 0.316 µM, first compound 0.000949 µM): 98.8%; viability, T/C (second compound 0.316 µM, first compound 0.003 µM): 95%; viability, T/C (second compound 0.316 µM, first compound 0.00949 µM): 98.5%; viability, T/C (second compound 0.316 µM, first compound 0.03 µM): 82.2%; viability, T/C (second compound 0.316 µM, first compound 0.0949 µM): 69.5%; viability, T/C (second compound 0.316 µM, first compound 0.3 µM): 64.6%; viability, T/C (second compound 1 µM, first compound 0.000949 µM): 102%; viability, T/C (second compound 1 µM, first compound 0.003 µM): 106%; viability, T/C (second compound 1 µM, first compound 0.00949 µM): 110%; viability, T/C (second compound 1 µM, first compound 0.03 µM): 79.9%; viability, T/C (second compound 1 µM, first compound 0.0949 µM): 94.8%; viability, T/C (second compound 1 µM, first compound 0.3 µM): 66.6%; viability, T/C (second compound 3.16 µM, first compound 0.000949 µM): 113%; viability, T/C (second compound 3.16 µM, first compound 0.003 µM): 102%; viability, T/C (second compound 3.16 µM, first compound 0.00949 µM): 98.6%; viability, T/C (second compound 3.16 µM, first compound 0.03 µM): 80.7%; viability, T/C (second compound 3.16 µM, first compound 0.0949 µM): 73.1%; viability, T/C (second compound 3.16 µM, first compound 0.3 µM): 73.9%; viability, T/C (second compound 10 µM, first compound 0.000949 µM): 131%; viability, T/C (second compound 10 µM, first compound 0.003 µM): 135%; viability, T/C (second compound 10 µM, first compound 0.00949 µM): 128%; viability, T/C (second compound 10 µM, first compound 0.03 µM): 102%; viability, T/C (second compound 10 µM, first compound 0.0949 µM): 95%; viability, T/C (second compound 10 µM, first compound 0.3 µM): 68.4%
